This note sets out measurements from US11253497B2, “Use of derivatives of polyunsaturated fatty acids as medicaments” (Lipopharma Therapeutics, S.L., priority 2009, dated 2022).

For experiment [1], the system named is apolipoprotein AI (apoA-I). As to the kind of experiment: Levels of apoA-I in SHR rats (RT-PCR). It counts as in vivo, rat. To be noted: 200 mg/kg day p.o., 30 days, before treatment 100%. On the procedure: (§1) In a separate experimental series, it was studied the effect of D-PUFA molecules of the present invention on blood pressure of SHR rats. In these animals both, blood pressure and levels of apolipoprotein AI (apoA-I) were measured. For these experiments Spontaneously Hypertensive Rats (SHR) were treated for 30 days with vehicle (water control) or compounds of the invention (200 mg/kg day, p.o.). At the end of this period, the animals' blood pressure and serum levels of apoA-I were measured. […] For these experiments, non-invasive methods for determining blood pressure (cuff-tail method) and gene expression for apoA-I (RT-PCR) described in the literature (Terés et al., 2008) were used. The usefulness of the molecules of the present invention for the treatment of cardiovascular diseases is reinforced by its capacity for reducing the levels of serum cholesterol and triglycerides (see below).
(§2) The average values of SHR before treatment were 214 mmHg and 100% respectively.

Experiment [2] deals with P19 cells. As to the kind of experiment: NMDA-induced neuronal death in P19 cells. It counts as cell-based. Particulars: NMDA alone 100% death, control without NMDA 0%; negative values = proliferation.
Experiment [3] deals with α-synuclein. The experiment is described as follows: Expression of α-synuclein in neuronal cultures (cells P19). Type of experiment: cell-based. Particulars: untreated cells 100%.
Experiment [4] relates to Spontaneously Hypertensive Rats (SHR). As to the kind of experiment: Blood pressure of SHR rats (cuff-tail method). Type of experiment: in vivo, rat. Particulars: 200 mg/kg day p.o., 30 days, before treatment 214 mmHg. As to the method: as §1, §2
Experiment [5] in a line: Serum cholesterol, triglycerides and glucose in SHR rats (colorimetric). Type of experiment: in vivo, rat. To be noted: 200 mg/kg daily p.o., 28 days, untreated rats 100%. On the procedure:
In a separate experimental series, SHR rats were treated with various compounds of the present invention (200 mg/kg daily, 28 days, p.o.) and the levels of cholesterol, triglycerides and glucose in serum were measured by colorimetric methods. It was observed that these compounds induce significant (and in many cases marked) reductions in the levels of these metabolites (Table 16).
Values are expressed as percent, and in untreated (control) rats values were always considered as 100%.

In experiment [6] the test system is lung cancer cells A549. The experiment is described as follows: Growth of lung cancer cells A549 (IC50). It counts as cell-based, human. To be noted: 72 hours of incubation. The procedure, abridged:
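Human A549 lung cancer cells in RPMI 1640 with 10% FBS at 37 °C, 5% CO2, exposed to D-PUFAs or PUFAs, then counted. values are means of three independent experiments.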

The subject of experiment [7] is breast cancer cells MDA-MB-231. As to the kind of experiment: Growth of breast cancer cells MDA-MB-231. It counts as cell-based. To be noted: 72 hours of incubation. The procedure, abridged: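 Human cancer cells in RPMI 1640 with 10% FBS at 37 °C, 5% CO2, exposed to D-PUFAs or PUFAs, then counted. Breast MDA-MB-231 cells run under the same conditions; values are means of three independent experiments.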

Experiment [8] concerns TNF-α. As to the kind of experiment: Production of TNF-α in serum of LPS-injected C57BL6/J mice. Type of experiment: in vivo. To be noted: LPS 20 μg i.p. (100%), 200 mg/kg p.o. The source says:
(§3) Cyclooxygenase (COX) is an enzyme that can bind to membranes, taking certain lipids from there and catalyze its conversion into molecules that can have inflammatory activity. The binding of this enzyme to membrane lipids is due in part to the membrane lipid structure. The increased activity of COX 1 and 2 isoforms has been associated with the etiopathology of a number of inflammatory diseases by […] arachidonic acid metabolism to produce pro-inflammatory lipid mediators. The D-PUFA compounds of the present invention produced a series of cellular signals that alter the metabolism of arachidonic acid and, as a result, they inhibit the activity and expression of COX in monocytes in culture (Table 14 and FIG. 5A). […] For this purpose, C57BL6/J mice were treated with the various derivatives (200 mg/kg, p.o.,) after inducing an inflammatory reaction in them by intraperitoneal injection of 20 μg of bacterial lipopolysaccharide (LPS).

Experiment [9] deals with COX-2. The experiment is described as follows: Expression of COX-2 in LPS-stimulated monocytes in culture. It counts as cell-based, human. Particulars: positive control with LPS 100%.
Text: FIG. 5A also presents a drawing showing the COX-2/COX-1 relationship as % of control (Y axis) for the following compounds (X-axis): OOA (2-hydroxy-oleic acid), OLA (182A1), OALA (183A1), OGLA (183A2), OARA (204A1), OEPA (205A1), ODHA (226A1). […] The reduction of this factor is directly related to the anti-inflammatory medication. The compounds are the same as in the left pane.
as §3
Inhibition of COX-2 expression in monocytes. Percentages of inhibition (compared to the positive control in the presence of LPS, 100%) of COX-2 protein levels (expression) by the various fatty acid derivatives.

The subject of experiment [10] is brain cancer cell (glioma) U118. The experiment is described as follows: Brain cancer (glioma) U118 cell growth. Type of experiment: cell-based. Particulars: 72 hours of incubation. The procedure, abridged: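 Human cells in RPMI 1640 with 10% FBS at 37 °C, 5% CO2, exposed to D-PUFAs or PUFAs, then counted. glioma U118 cells run under the same conditions; values are means of three independent experiments.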

In general, IC50 refers to the concentration that gives 50% inhibition. A higher IC50 goes with lower potency. In the case of `CCCCCC=CCC=CCC=CCCCC(OC=O)C(=O)OCC` (stereo not drawn) [183V2], the “Levels of apoA-I” value in [1] was 282%. Further, the “Neuronal death (P19 cells) after treatment with NMDA” value (“Neuronal death (P19 cells)” for short) in [2] is on record as −18%. In addition, the “Expression of α-synuclein” value in experiment [3] is 89%. Besides, the Blood pressure in [4] is 198 mm Hg. Moreover, in experiment [5], the “Cholesterol in serum (top number)” value was 84%, the “Glucose in serum (bottom number)” value worked out at 88% and the “Triglycerides in serum (central number)” value came to 92%. This molecule also registered a concentration for half-maximal inhibition (IC50) in [6] of 291 µM. Besides, the IC50 in experiment [7] amounted to 241 µM. The “Production of TNF-α in serum” value in [8] is 87%. In addition, in experiment [9], the “COX-2 protein levels (expression), percentages of inhibition compared to positive control” value turned out to be 68%. Further, the IC50 in experiment [10] was 402 µM.
Regarding `CCCCCC=CCC=CCCCCCCC(O)C(=O)OP(=O)(OCC)OCC` (stereo not drawn) [182F1], the “Levels of apoA-I” value in experiment [1] amounted to 192%. Moreover, the “Neuronal death (P19 cells)” value in [2] is −45%. Also, the “Expression of α-synuclein” value in experiment [3] was found to be 71%. In [4], this molecule registered a Blood pressure of 198 mm Hg. Besides, in [5], the “Cholesterol in serum (top number)” value came to 92%, the “Glucose in serum (bottom number)” value is 89% and the “Triglycerides in serum (central number)” value is on record as 88%. For the same molecule, the IC50 in experiment [6] is 354 µM. In experiment [7], it took 311 µM to reach half-maximal inhibition (IC50). Also, the “Production of TNF-α in serum” value in [8] is reported as 86%. In [9], the “COX-2 protein levels (expression), percentages of inhibition compared to positive control” value came out at 56%. Also, in [10], the IC50 came to 236 µM.
Take `CCC=CCC=CCC=CCC=CCC=CCCC(O)C(=O)OP(=O)(OCC)OCC` (stereo not drawn) [205F1]: in experiment [1], the “Levels of apoA-I” value is 319%. In addition, in experiment [2], the “Neuronal death (P19 cells)” value is given as −44%. In addition, in experiment [3], the “Expression of α-synuclein” value worked out at 57%. Further, the Blood pressure in experiment [4] worked out at 195 mm Hg. Also, in experiment [5], the “Cholesterol in serum (top number)” value worked out at 71%, the “Glucose in serum (bottom number)” value was 82% and the “Triglycerides in serum (central number)” value turned out to be 83%. Besides, in experiment [6], the IC50 amounted to 338 µM. The molecule further registered a 50% inhibitory concentration (IC50) in experiment [7] of 275 µM. In addition, the “Production of TNF-α in serum” value in experiment [8] is 80%. The “COX-2 protein levels (expression), percentages of inhibition compared to positive control” value in [9] amounted to 47%. Moreover, the midpoint of inhibition in [10], the IC50, lay at 498 µM.
For `CCCCCC=CCC=CCCCCCCC(C)C(=O)[O-].[Na+]` (stereo not drawn) [182L1], the “Levels of apoA-I” value in [1] is on record as 131%. Further, in [2], the “Neuronal death (P19 cells)” value is −32%. In addition, in experiment [3], the “Expression of α-synuclein” value was found to be 80%. The molecule further showed a Blood pressure in experiment [4] of 207 mm Hg. In experiment [5], the “Cholesterol in serum (top number)” value came to 89%, the “Glucose in serum (bottom number)” value was found to be 94% and the “Triglycerides in serum (central number)” value is listed as 93%. This molecule came in with a half-inhibitory concentration (IC50) in experiment [6] of 385 µM. In [7], this molecule yielded an IC50 of 343 µM. In addition, the “Production of TNF-α in serum” value in experiment [8] was 85%. In addition, the “COX-2 protein levels (expression), percentages of inhibition compared to positive control” value in [9] was 67%. This molecule also registered an IC50 in experiment [10] of 229 µM.
For the molecule `CCCCCC=CCC=CCC=CCCCC(O)C(=O)OP(=O)(OCC)OCC` (stereo not drawn) [183F2], the “Levels of apoA-I” value in experiment [1] turned out to be 279%. Moreover, the “Neuronal death (P19 cells)” value in experiment [2] is reported as −36%. Also, the “Expression of α-synuclein” value in experiment [3] was 52%. In experiment [4], the Blood pressure is reported as 191 mm Hg. In [5], the “Cholesterol in serum (top number)” value is reported as 84%, the “Glucose in serum (bottom number)” value is listed as 85% and the “Triglycerides in serum (central number)” value worked out at 87%. The same molecule showed an IC50 in experiment [6] of 259 µM. The same molecule showed a half-inhibitory concentration (IC50) in experiment [7] of 181 µM. Moreover, the “Production of TNF-α in serum” value in [8] turned out to be 86%. The “COX-2 protein levels (expression), percentages of inhibition compared to positive control” value in [9] is listed as 36%. In [10], this molecule gave a 50% inhibitory concentration (IC50) of 401 µM.
As for `CCC=CCC=CCC=CCCCCCCC(C)C(=O)[O-].[Na+]` (stereo not drawn) [183L1], in [1], the “Levels of apoA-I” value is recorded as 125%. The “Neuronal death (P19 cells)” value in experiment [2] is listed as −21%. Further, in experiment [3], the “Expression of α-synuclein” value came out at 76%. Besides, the Blood pressure in experiment [4] was found to be 205 mm Hg. Further, in [5], the “Cholesterol in serum (top number)” value is reported as 82%, the “Glucose in serum (bottom number)” value is given as 85% and the “Triglycerides in serum (central number)” value was determined as 77%. In experiment [6], the IC50 was 285 µM. It took 306 µM to reach half-maximal inhibition in experiment [7] (IC50). In addition, the “Production of TNF-α in serum” value in experiment [8] came to 86%. Besides, the “COX-2 protein levels (expression), percentages of inhibition compared to positive control” value in experiment [9] is given as 65%. Also, the half-maximal inhibitory concentration (IC50) in [10] was 231 µM.
